Measured values published in patent US7572799B2, “Pyrazolo[4,3-d]pyrimidines as Phosphodiesterase Inhibitors” (Pfizer Inc, priority 2003, dated 2009).
Where two headings read alike, the source gives them in different places.

Target: PDE-5 (UniProt O76074)
Assay: In vitro PDE inhibitory activity against PDE5 (batch method or scintillation proximity assay)
Type: biochemical, human
Conditions: representative compounds
Description: The compounds of the invention are inhibitors of cyclic guanylate monophosphate (cGMP)-specific phosphodiesterase type 5 (PDE-5 inhibitors).
The required PDE enzymes can be isolated from a variety of sources, including human corpus cavernosum, human and rabbit platelets, human cardiac ventricle, human skeletal muscle and bovine retina, essentially by a modification of the method of Thompson, W J et al.; Biochemistry 18(23), 5228-5237, 1979, as described by Ballard S A et al.; J. Urology 159(6), 2164-2171, 1998. In particular, cGMP-specific PDE5 and cGMP-inhibited cAMP PDE3 can be obtained from human corpus cavernosum tissue, human platelets or rabbit platelets; cGMP-stimulated PDE2 was obtained from human corpus cavernosum; calcium/calmodulin (Ca/CAM)-dependent PDE1 from human cardiac ventricle; cAMP-specific PDE4 from human skeletal muscle; and photoreceptor PDE6 from bovine retina. Phosphodiesterases 7-11 can be generated from full length human recombinant clones transfected into SF9 cells.
Assays can be performed either using a modification of the “batch”method of Thompson W J and Appleman M M; Biochemistry 10(2), 311-316, 1971, essentially as described by Ballard S A et al.; J. Urology 159(6), 2164-2171, 1998, or using a scintillation proximity assay for the direct detection of [^3H]-labelled AMP/GMP using a modification of the protocol described by Amersham plc under product code TRKQ7090/7100. In summary, for the scintillation proximity assay the effect of PDE inhibitors was investigated by assaying a fixed amount of enzyme in the presence of varying inhibitor concentrations and low substrate, (cGMP or cAMP in a 3:1 ratio unlabelled to [^3H]-labeled at a concentration of ˜⅓ Km, or less) such that IC50≅Ki. The final assay volume was made up to 100 μl with assay buffer [20 mM Tris-HCl pH 7.4, 5 mM MgCl2, 1 mg/ml bovine serum albumin]. Reactions were initiated with enzyme, incubated for 30-60 min at 30° C. to give <30% substrate turnover and terminated with 50 μl yttrium silicate SPA beads (containing 3 mM of the respective unlabelled cyclic nucleotide for PDEs 9 and 11).

| SMILES | IC50 (read-out: IC50) [nM] | IC50 [nM] |
| --- | --- | --- |
| CO[C@@H](C)Cn1nc(C(=O)O)c2nc(N(C)C(C)C)nc(Nc3cc(C)ccn3)c21 [Example 135, 5-[Isopropyl(methyl)amino]-1-[(2S)-2-methoxypropyl]-7-[(4-methylpyridin-2-yl)amino]-1H-pyrazolo[4,3-d]pyrimidine-3-carboxylic acid] | 7.7 | – |
| CCOCCn1nc(C(=O)O)c2nc(N(C)C(C)C)nc(Nc3ccnc(C)n3)c21 [Example 72] | 59.2 | – |
| CCOCCn1nc(C(=O)OC)c2nc(N(C)C(C)C)nc(Nc3cccc(C)n3)c21 [Example 6, Methyl 1-(2-ethoxyethyl)-5-(N-isopropyl-N-methylamino)-7-(6-methylpyridin-2-ylamino) -1H-pyrazolo[4,3-d]pyrimidine-3-carboxylate] | 2.89 | – |
| CCN(C)c1nc(Nc2cc(C)ccn2)c2c(n1)c(C(=O)O)nn2CCOCC(F)(F)F [Example 127, 5-[Ethyl(methyl)amino]-7-[(4-methylpyridin-2-yl)amino]-1-[2-(2,2,2-trifluoroethoxy)ethyl]-1H-pyrazolo[4,3-d]pyrimidine-3-carboxylic acid] | 6.34 | – |
| Cc1ccnc(Nc2nc(N(C)C)nc3c(C(=O)O)nn(CC4CCCCO4)c23)c1 (centres unmarked) [Example 59] | – | 43.6 |
| CCCOCCn1nc(C(=O)O)c2nc(N(C)C(C)C)nc(Nc3cc(C)ccn3)c21 [Example 19] | 2.43 | – |
| CCOCCn1nc(C(=O)O)c2nc(N(C)C(C)C)nc(Nc3cc(C)ccn3)c21 [Example 110, 1-(2-Ethoxyethyl)-5-(N-isopropyl-N-methylamino)-7-(4-methylpyridin-2-ylamino)-1H-pyrazolo[4,3-d]pyrimidine-3-carboxylic acid] | 0.564 | – |
| CCOCCn1nc(C(=O)O)c2nc(N(C)CC)nc(Nc3cc(C)ccc3F)c21 [Example 101] | 8.45 | – |
| CCOCCn1nc(C(=O)O)c2nc(N(C)C)nc(NC3CCC3)c21 [Example 33] | – | 100 |
| CCOCCn1nc(C(=O)O)c2nc(N(C)C)nc(Nc3cc(C)cc(C)n3)c21 [Example 27] | 36.8 | – |
| CCN(CC)c1nc(Nc2cc(C)ccn2)c2c(n1)c(C(=O)O)nn2CCOCC(F)(F)F [Example 128, 5-(Diethylamino)-7-[(4-methylpyridin-2-yl)amino]-1-[2-(2,2,2-trifluoroethoxy)ethyl]-1H-pyrazolo[4,3-d]pyrimidine-3-carboxylic acid] | 3.94 | – |
| CCOCCn1nc(C(=O)O)c2nc(N(CC)CC)nc(N[C@@H]3CCOC3)c21 [Example 68] | – | 100 |
| CCOCCn1nc(C(=O)O)c2nc(N(C)C(C)C)nc(NC3CCCC3)c21 [Example 31] | – | 43.4 |
| CCOCCn1nc(C(=O)O)c2nc(N(C)C)nc(Nc3cc(C)ccn3)c21 [Example 14] | 8.75 | – |
| CCOCCn1nc(-c2nnn[nH]2)c2nc(N(C)C)nc(Nc3cc(C)ccn3)c21 [Example 80] | 2.88 | – |
| CCOCCn1nc(C(=O)O)c2nc(N(C)C(C)C)nc(Nc3cnccn3)c21 [Example 29] | 106 | – |

| SMILES | IC50 (read-out: IC50) [nM] | IC50 [nM] |
| --- | --- | --- |
| CCOCCn1nc(C(=O)O)c2nc(N(CC)CC)nc(Nc3cc(C)ccn3)c21 [Example 11] | 1.09 | – |
| CCOCCn1nc(C(=O)O)c2nc(N(C)C(C)C)nc(Nc3ccc(F)c(F)c3)c21 [Example 90] | 2.83 | – |
| CCOCCn1nc(C(=O)O)c2nc(N(CC)CC)nc(Nc3ccc(=O)n(C)c3)c21 [Example 125, 5-(Diethylamino)-1-(2-ethoxyethyl)-7-[(1-methyl-6-oxo-1,6-dihydropyridin-3-yl)amino]-1H-pyrazolo[4,3-]pyrimidine-3-carboxylic acid] | 1.53 | – |
| COCCn1nc(C(=O)O)c2nc(N(C)C(C)C)nc(Nc3cc(C)ccn3)c21 [Example 22] | 7.12 | – |
| CCOCCn1nc(C(=O)O)c2nc(N3CCCC3)nc(Nc3cc(C)ccn3)c21 [Example 134, 1-(2-Ethoxyethyl)-7-[(4-methylpyridin-2-yl)amino]-5-pyrrolidin-1-yl-1H-pyrazolo[4,3-d]pyrimidine-3-carboxylic acid] | 5.02 | – |
| CCOCCn1nc(C(=O)O)c2nc(N3CC[C@H](OC)C3)nc(Nc3cc(C)ccn3)c21 [Example 12] | 14.7 | – |
| CCN(C)c1nc(Nc2cc(C)ccn2)c2c(n1)c(C(=O)O)nn2CCOC(C)C [Example 62] | 1.85 | – |
| CCOCCn1nc(C(=O)O)c2nc(N(C)C(C)C)nc(Nc3ccc(F)cn3)c21 [Example 81, 1-(2-Ethoxyethyl)-7-(5-fluoropyridin-2-ylamino)-5-(N-isopropyl-N-methylamino)-1H-pyrazolo[4,3-d]pyrimidine-3-carboxylic acid] | 16.7 | – |
| CCOCCn1nc(C(=O)O)c2nc(N(C)C3CCCC3)nc(Nc3cc(C)ccn3)c21 [Example 18] | 11.3 | – |
| CCOCCn1nc(C(=O)O)c2nc(NC(C)C)nc(Nc3cc(C)ccn3)c21 [Example 54] | 2.03 | – |
| CCCOCCn1nc(C(=O)NS(C)(=O)=O)c2nc(N(C)C(C)C)nc(Nc3cc(C)ccn3)c21 [Example 184, 5-[Isopropyl(methyl)amino]-7-[(4-methylpyridin-2-yl)amino]-N-(methylsulfonyl)-1-(2-propoxyethyl)-1H-pyrazolo[4,3-d]pyrimidine-3-carboxamide] | 0.5 | – |
| CCOCCn1nc(C(=O)O)c2nc(N(C)C)nc(Nc3ccc(C)c(C)c3)c21 [Example 102] | 38.2 | – |
| CCOCCn1nc(C(=O)OC)c2nc(N(C)C)nc(Nc3cc(C)ccn3)c21 [Example 5] | 0.943 | – |
| CCN(C)c1nc(Nc2cc(C)ccn2)c2c(n1)c(C(=O)NS(C)(=O)=O)nn2CCOCC(F)(F)F [Example 178, 5-[Ethyl(methyl)amino]-7-[(4-methylpyridin-2-yl)amino]-N-(methylsulfonyl)-1-[2-(2,2,2-trifluoroethoxy)ethyl]-1H-pyrazolo[4,3-]pyrimidine-3-carboxamide] | 2.21 | – |
| CCCN(CC1CC1)c1nc(Nc2cc(C)ccn2)c2c(n1)c(C(=O)O)nn2CCOCC [Example 49] | 4.92 | – |
| Cc1ccnc(Nc2nc(N(C)C(C)C)nc3c(C(=O)O)nn(CCOCC(F)(F)F)c23)c1 [Example 126, 5-[Isopropyl(methyl)amino]-7-[(4-methylpyridin-2-yl)amino]-1-[2-(2,2,2-trifluoroethoxy)ethyl]-1H-pyrazolo[4,3-d]pyrimidine-3-carboxylic acid] | 3.05 | – |
